# Test results taken from publication PMC11224556, “Next-generation of BBQ analogues that selectively target breast cancer” (Frontiers in Chemistry, 2024).
# Molecular target: T1, AhR (Homo sapiens, UniProt P35869)
# T1 construct: This cell line stably expresses the secreted Lucia luciferase reporter gene under the control of a minimal promoter; host or cells: HT29-Lucia AhR reporter cells
# T1 sequence (P35869 11-848): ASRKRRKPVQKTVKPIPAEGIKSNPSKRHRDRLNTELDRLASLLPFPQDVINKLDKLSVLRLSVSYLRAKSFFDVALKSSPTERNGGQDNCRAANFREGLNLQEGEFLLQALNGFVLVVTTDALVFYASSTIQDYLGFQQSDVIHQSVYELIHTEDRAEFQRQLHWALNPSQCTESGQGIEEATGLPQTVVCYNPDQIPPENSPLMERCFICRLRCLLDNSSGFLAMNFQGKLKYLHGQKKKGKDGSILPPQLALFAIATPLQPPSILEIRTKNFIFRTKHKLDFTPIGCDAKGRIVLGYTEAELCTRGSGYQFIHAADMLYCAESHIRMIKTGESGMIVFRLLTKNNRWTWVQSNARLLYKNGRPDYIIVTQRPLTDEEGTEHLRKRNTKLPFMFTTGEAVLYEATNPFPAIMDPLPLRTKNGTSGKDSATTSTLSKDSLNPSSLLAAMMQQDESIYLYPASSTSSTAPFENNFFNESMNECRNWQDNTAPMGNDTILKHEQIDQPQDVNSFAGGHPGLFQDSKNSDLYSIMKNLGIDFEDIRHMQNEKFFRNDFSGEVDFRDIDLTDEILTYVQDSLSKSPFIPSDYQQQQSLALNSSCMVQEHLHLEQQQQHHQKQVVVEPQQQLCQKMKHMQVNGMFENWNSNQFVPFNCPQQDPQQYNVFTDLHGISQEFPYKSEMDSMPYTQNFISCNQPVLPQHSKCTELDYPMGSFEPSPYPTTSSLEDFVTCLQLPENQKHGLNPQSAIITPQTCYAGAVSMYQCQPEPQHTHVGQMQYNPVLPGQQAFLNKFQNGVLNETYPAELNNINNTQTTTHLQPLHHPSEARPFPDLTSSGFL
# Assay: AhR transcription reporter assay (HT29-Lucia AhR cells)
# Type: cell-based
# Settings: 1 µM, 24 h, relative to DMSO
# Excerpt: Our previous studies have shown that the activity of NAP-6 (2) and 10-Cl-BBQ (3) required the activation of the AhR pathway and the induction of CYP1 family of phase I metabolising enzymes ([Gilbert et al., 2020]; [Baker et al., 2021a]). Therefore, we sought to determine the activation of AhR using a stable AhR reporter assay in HT29-Lucia™ AhR cells, in the presence of each BBQ analogue (Figure 3). Activation of the AhR was indicated by enhanced luminescence caused by the translocation of the AhR to the nucleus of the cell and interaction with the xenobiotic response elements imbedded in the luciferase gene.
# Stock solutions were prepared as follows and stored as 20 mM DMSO solutions at −20 °C. All cell lines were cultured in a humidified atmosphere 5% CO2 at 37 °C. The cancer cell lines were maintained in Dulbecco’s modified Eagle’s medium (DMEM) (Trace Biosciences, Australia) supplemented with 10% foetal bovine serum (FBS), 10 mM sodium bicarbonate, penicillin (100 IU/mL), streptomycin (100 μg/mL), and glutamine (4 mM). The non-cancer MCF10A cell line was cultured in DMEM:F12 (1:1) cell culture media, 5% heat inactivated horse serum, supplemented with penicillin (50 IU/mL), streptomycin (50 μg/mL), 20 mM Hepes, L-glutamine (2 mM), epidermal growth factor (20 ng/mL), hydrocortisone (500 ng/mL), cholera toxin (100 ng/mL), and insulin (10 μg/mL). The AhR reporter cell line HT29-Lucia™ (Invivogen, United States) was maintained in DMEM supplemented with 10% heat inactivated FBS, L-glutamine (2 mM), penicillin (100 IU/mL), streptomycin (100 μg/mL), 100 μg/mL Normocin™, and 100 μg/mL of the selective antibiotic Zeocin™. All cell lines were purchased from the American Type Culture Collection (ATCC), except for A2780 and A431 which were from the European Collection of Authenticated Cell Cultures (ECACC), and SJ-G2 cell line which was from Dr Mary Danks, St Jude Children’s Research hospital, Memphis, TN.
# The activity of the AhR signalling pathway was measured using the stably transfected AhR cell line, HT29-Lucia™ (Invivogen, United States). This cell line stably expresses the secreted Lucia luciferase reporter gene under the control of a minimal promoter coupled with the human CYP1A1 gene entire regulatory sequence, containing six DREs. The Lucia luciferase reporter protein is readily measurable in the cell culture supernatant using QUANTI-Luc™. For the determination of AhR activity, 4 × 10^4 cells in 180 μL was plated into each well of a 96 well micro-titre plate in the absence of antibiotics and allowed to culture for 24 h prior to the addition of test compounds in a volume of 20 μL. At the indicated time, 20 μL of cell supernatant was transferred to a white luminometer plate and 50 µL of QUANTI-Luc was added immediately prior to reading the luminescence using a GloMax Explorer Luminescence Plate Reader. The promoter activity was conducted in duplicate and the values expressed as fold-change relative to DMSO (0.1%) treated cells. The AhR ligand, FICZ (6-formylindolo[3,2-b]carbazole) and AhR inhibitor CH223191 were included for study as positive and negative controls, respectively. […] Results are presented as the mean ± standard error of the mean (SEM) of analysis conducted in duplicate and repeated on three separate occasions.
row,Compound,"AhR activation, Fold Reporter Induction"
1,"3-Chloro-7H-benzo[de]benzo[4,5]imidazo[2,1-a]isoquinolin-7-one (10a) and 4-chloro-7H-benzo[de]benzo[4,5]imidazo[2,1-a]isoquinolin-7-one (10b) [Compound 10]",2.7 fold
2,"3-Nitro-7H-benzo[de]benzo[4,5]imidazo[2,1-a]isoquinolin-7-one (11a) and 4-nitro-7H-benzo[de]benzo[4,5]imidazo[2,1-a]isoquinolin-7-one (11b) [Compound 11]",10.2 fold
3,"7-Oxo-7H-benzo[de]benzo[4,5]imidazo[2,1-a]isoquinoline-10-carbonitrile (9a) and 7-oxo-7H-benzo[de]benzo[4,5]imidazo[2,1-a]isoquinoline-11-carbonitrile (9b) [Compound 9]",2.5 fold
4,"9-Methyl-7H-benzo[de]benzo[4,5]imidazo[2,1-a]isoquinolin-7-one (8a) and 12-methyl-7H-benzo[de]benzo[4,5]imidazo[2,1-a]isoquinolin-7-one (8b) [Compound 8]",2.5 fold
5,"10-Methyl-7H-benzo[de]benzo[4,5]imidazo[2,1-a]isoquinolin-7-one (7a) and 11-methyl-7H-benzo[de]benzo[4,5]imidazo[2,1-a]isoquinolin-7-one (7b) [Compound 7]",2.8 fold
6,"Nc1ccccc1N1C(=O)c2cccc3cccc(c23)C1=O [Compound 2, 2-(2-aminophenyl)-1H-benzo[de]isoquinoline-1,3(2H)-dione]",1.8 fold
7,"O=c1c2cccc3cccc(c32)c2nc3ccc(Cl)cc3n12 [Compound 3, 10-Chloro-7H-benzo[de]benzo[4,5]imidazo[2,1-a]isoquinolin-7-one]",2.7 fold
8,"O=c1c2cccc3cccc(c32)c2nc3cc(Cl)ccc3n12 [Compound 4, 11-Chloro-7H-benzo[de]benzo[4,5]imidazo[2,1-a]isoquinolin-7-one]",2.9 fold
9,"O=c1c2cccc3cccc(c32)c2nc3ccccc3n12 [Compound 5, 7H-Benzo[de]benzo[4,5]imidazo[2,1-a]isoquinolin-7-one]",3.1 fold
10,"O=c1c2ccccc2cc2[nH]c3ccccc3n12 [Compound 12, Benzo[4,5]imidazo[1,2-b]isoquinolin-11(5H)-one]",1.2 fold
11,"O=c1c2cccc3cccc(c4n1Cc1ccccc1N=4)c32 [Compound 13, 7H,9H-benzo[4,5]isoquinolino[1,2-b]quinazolin-7-one]",1.8 fold
12,"O=C(O)c1ccc2c3c1cccc3c(=O)n1c3ccccc3nc21 [Compound 14, reference compound]",1.5 fold
